Results reported in PubChem BioAssay AID1259407 (Chemical Carcinogenesis Research Information System (CCRIS), 2018).
Active and inactive are the calls of the source. How the calls were made is not given here.

Test system: CCRIS mutagenicity, Ames/micronucleus/aberration tests
Assay: CCRIS mutagenicity studies
[1] = Test System: AMES SALMONELLA TYPHIMURIUM, Strain/Indicator: TA100, Metabolic Activation: NONE, Method: PREINCUBATION
[2] = Test System: AMES SALMONELLA TYPHIMURIUM, Strain/Indicator: TA100, Metabolic Activation: RAT, LIVER, S-9, Method: STANDARD PLATE
[3] = Test System: AMES SALMONELLA TYPHIMURIUM, Strain/Indicator: TA1535, Metabolic Activation: NONE, Method: STANDARD PLATE
[4] = Test System: AMES SALMONELLA TYPHIMURIUM, Strain/Indicator: TA102, Metabolic Activation: NONE, Method: PREINCUBATION
[5] = Test System: AMES SALMONELLA TYPHIMURIUM, Strain/Indicator: TA98, Metabolic Activation: NONE, Method: STANDARD PLATE
[6] = Test System: AMES SALMONELLA TYPHIMURIUM, Strain/Indicator: TA100, Metabolic Activation: NONE, Method: STANDARD PLATE

Measured: mutagenic call

O=C1[C@H]2CC=CC[C@H]2C(=O)N1SC(Cl)(Cl)Cl
active: Test System: AMES SALMONELLA TYPHIMURIUM, Strain/Indicator: G46, Metabolic Activation: MOUSE, LIVER, S-9, PHENOBARBITAL, Method: STANDARD PLATE active; positive | Test System: AMES SALMONELLA TYPHIMURIUM, Strain/Indicator: TA97A, Metabolic Activation: NONE, Method: STANDARD PLATE active; positive | Test System: AMES SALMONELLA TYPHIMURIUM, Strain/Indicator: TA98, Metabolic Activation: NONE active; positive | Test System: AMES SALMONELLA TYPHIMURIUM, Strain/Indicator: TA98, Metabolic Activation: RAT, LIVER, S-9, AROCLOR 1254 active; positive | Test System: AMES SALMONELLA TYPHIMURIUM, Strain/Indicator: TA98, Metabolic Activation: RAT, LIVER, S-9, AROCLOR 1254, Method: STANDARD PLATE active; positive | Test System: AMES SALMONELLA TYPHIMURIUM, Strain/Indicator: TA100, Metabolic Activation: NONE active; positive | [1] active; positive | Test System: AMES SALMONELLA TYPHIMURIUM, Strain/Indicator: TA100, Metabolic Activation: RAT, LIVER, S-9, AROCLOR 1254 active; positive | [2] active; positive | Test System: AMES SALMONELLA TYPHIMURIUM, Strain/Indicator: TA100, Metabolic Activation: S-9 MIX, Method: STANDARD PLATE active; positive | Test System: AMES SALMONELLA TYPHIMURIUM, Strain/Indicator: TA102, Metabolic Activation: NONE active; positive | Test System: AMES SALMONELLA TYPHIMURIUM, Strain/Indicator: TA102, Metabolic Activation: RAT, LIVER, S-9, AROCLOR 1254 active; positive | Test System: AMES SALMONELLA TYPHIMURIUM, Strain/Indicator: TA104, Metabolic Activation: RAT, LIVER, S-9, PHENOBARBITAL, Method: STANDARD PLATE active; positive | Test System: AMES SALMONELLA TYPHIMURIUM, Strain/Indicator: TA1535, Metabolic Activation: MOUSE, LIVER, S-9, PHENOBARBITAL, Method: STANDARD PLATE active; positive | Test System: AMES SALMONELLA TYPHIMURIUM, Strain/Indicator: TA1535, Metabolic Activation: NONE active; positive | [3] active; positive | Test System: AMES SALMONELLA TYPHIMURIUM, Strain/Indicator: TA1535, Metabolic Activation: RAT, LIVER, S-9, AROCLOR 1254 active; positive | Test System: AMES SALMONELLA TYPHIMURIUM, Strain/Indicator: TA1535, Metabolic Activation: RAT, LIVER, S-9, PHENOBARBITAL, Method: STANDARD PLATE active; positive | Test System: AMES SALMONELLA TYPHIMURIUM, Strain/Indicator: TA1537, Metabolic Activation: NONE active; positive | Test System: AMES SALMONELLA TYPHIMURIUM, Strain/Indicator: TA1537, Metabolic Activation: NONE, Method: STANDARD PLATE active; positive | Test System: AMES SALMONELLA TYPHIMURIUM, Strain/Indicator: TA1537, Metabolic Activation: RAT, LIVER, S-9, AROCLOR 1254 active; positive | Test System: AMES SALMONELLA TYPHIMURIUM, Strain/Indicator: TA1537, Metabolic Activation: RAT, LIVER, S-9, PHENOBARBITAL, Method: STANDARD PLATE active; positive | Test System: AMES SALMONELLA TYPHIMURIUM, Strain/Indicator: TA1950, Metabolic Activation: NONE, Method: SPOT active; positive | Test System: Ames Salmonella typhimurium, Strain/Indicator: TA100, Metabolic Activation: None, Method: Preincubation active; positive | Test System: Ames Salmonella typhimurium, Strain/Indicator: TA1975P, Metabolic Activation: None, Method: Preincubation active; positive (at higher doses) | Test System: CHINESE HAMSTER OVARY, Strain/Indicator: CHO-K1-BH4 (HGPRT), Metabolic Activation: RAT, LIVER, S-9, AROCLOR, Method: SUSPENSION/PLATE active; positive | Test System: CHINESE HAMSTER V-79, Strain/Indicator: V-79/8-AZAGUANINE, Metabolic Activation: NONE, Method: STANDARD PLATE active; positive | Test System: CHINESE HAMSTER V-79, Strain/Indicator: V-79/OUABAIN, Metabolic Activation: NONE, Method: STANDARD PLATE active; positive | Test System: E. COLI, Strain/Indicator: WP2, Metabolic Activation: NONE, Method: STANDARD PLATE active; positive | Test System: E. COLI, Strain/Indicator: WP2, Metabolic Activation: RAT, LIVER, S-9, Method: STANDARD PLATE active; positive | Test System: E. COLI, Strain/Indicator: WP2 UVRA, Metabolic Activation: NONE, Method: STANDARD PLATE active; positive | Test System: E. COLI, Strain/Indicator: WP2 UVRA, Metabolic Activation: RAT, LIVER, S-9, AROCLOR 1254, Method: STANDARD PLATE active; positive
inactive: Test System: AMES SALMONELLA TYPHIMURIUM, Strain/Indicator: TA97A, Metabolic Activation: RAT, LIVER, S-9, AROCLOR 1254, Method: STANDARD PLATE inactive; negative | Test System: AMES SALMONELLA TYPHIMURIUM, Strain/Indicator: TA102, Metabolic Activation: RAT, LIVER, S-9, AROCLOR 1254, Method: STANDARD PLATE inactive; negative | Test System: AMES SALMONELLA TYPHIMURIUM, Strain/Indicator: TA102, Metabolic Activation: RAT, LIVER, S-9, PHENOBARBITAL, Method: STANDARD PLATE inactive; negative | Test System: AMES SALMONELLA TYPHIMURIUM, Strain/Indicator: TA104, Metabolic Activation: RAT, LIVER, S-9, AROCLOR 1254, Method: STANDARD PLATE inactive; negative

COc1cc2c(c3ccc4ccccc4c13)CCC2=O
active: Test System: AMES SALMONELLA TYPHIMURIUM, Strain/Indicator: TA100, Metabolic Activation: RAT, LIVER, S-9, AROCLOR 1254, Method: STANDARD PLATE active; positive

CN1CC=C(c2ccccc2)CC1
inactive: [1] inactive; negative | [4] inactive; negative

COc1cc(-c2cc(OC)cc(C(C)(C)C)c2O)c(O)c(C(C)(C)C)c1
inactive: Test System: AMES SALMONELLA TYPHIMURIUM, Strain/Indicator: TA97, Metabolic Activation: NONE, Method: PREINCUBATION inactive; negative | Test System: AMES SALMONELLA TYPHIMURIUM, Strain/Indicator: TA97, Metabolic Activation: RAT, LIVER, S-9, PCB, Method: PREINCUBATION inactive; negative | Test System: AMES SALMONELLA TYPHIMURIUM, Strain/Indicator: TA98, Metabolic Activation: NONE, Method: PREINCUBATION inactive; negative | Test System: AMES SALMONELLA TYPHIMURIUM, Strain/Indicator: TA98, Metabolic Activation: RAT, LIVER, S-9, PCB, Method: PREINCUBATION inactive; negative | [1] inactive; negative | Test System: AMES SALMONELLA TYPHIMURIUM, Strain/Indicator: TA100, Metabolic Activation: RAT, LIVER, S-9, PCB, Method: PREINCUBATION inactive; negative | [4] inactive; negative | Test System: AMES SALMONELLA TYPHIMURIUM, Strain/Indicator: TA102, Metabolic Activation: RAT, LIVER, S-9, PCB, Method: PREINCUBATION inactive; negative

CCC(C)OS(C)(=O)=O (centres undefined)
active: End Point: IN VITRO MICRONUCLEUS, Test System: MOUSE LYMPHOMA L5178Y CELLS, Metabolic Activation: NONE active; positive | End Point: IN VITRO MICRONUCLEUS, Test System: MOUSE LYMPHOMA L5178Y CELLS, Metabolic Activation: RAT, LIVER, S-9 active; positive | [5] active; positive | Test System: AMES SALMONELLA TYPHIMURIUM, Strain/Indicator: TA98, Metabolic Activation: RAT, LIVER, S-9, Method: STANDARD PLATE active; positive | [6] active; positive | [2] active; positive | [3] active; positive | Test System: CHINESE HAMSTER V-79, Strain/Indicator: V-79/6-THIOGUANINE, Metabolic Activation: NONE active; positive

c1ccc2c(c1)cc1sc3cccc4ccc2c1c43
active: Test System: AMES SALMONELLA TYPHIMURIUM, Strain/Indicator: TA98, Metabolic Activation: RAT, LIVER, S-9, AROCLOR 1254 (10%), Method: STANDARD PLATE active; positive
inactive: [5] inactive; negative | [6] inactive; negative | Test System: AMES SALMONELLA TYPHIMURIUM, Strain/Indicator: TA100, Metabolic Activation: RAT, LIVER, S-9, AROCLOR 1254 (10%), Method: STANDARD PLATE inactive; negative
